Experimental data taken from publication PMC11470957, “Principles of paralog-specific targeted protein degradation engaging the C-degron E3 KLHDC2” (Nature Communications, 2024).
“Also recorded” adds a separate entry of the source.

Test system: KLHDC2, KLHDC3, KLHDC10, KLHDC1 E3 ligases

## O=C(O)CNC(=O)Cc1csc(-c2ccc3ccccc3c2)n1 [SJ46411]
Inhibition of SELK ubiquitylation
  selectivity towards KLHDC2 over other KLHDC family members: at least two orders-of-magnitude
Ligand alone, Fig S5b, c
  inhibition of substrate ubiquitylation by Kelch family E3 ligases other than KLHDC2: does not show substantial effects; also recorded: largely inactive
